Reference: patent publication US6218393A, “Anthranilic acid derivatives as multi drug resistance modulators” (priority 1997, dated 2001)

Columns and labels:
H69/LX4 cells = test: Potentiation of toxicity of various cytotoxic agents, H69/LX4 cell line; type: cell-based; conditions: for Potentiation Index at RMA concentration 30 nM: RMA 30 nM; for Potentiation Index at RMA concentration 50 nM: RMA 50 nM; for Potentiation Index at RMA concentration 10 nM: RMA 10 nM
Method: (§1) (b) Cells were cultured for four days with a titration of doxorubicin (0.263 nM-17.24 μM) in the presence of a fixed concentration of each compound. Proliferation was quantified as described by Skehen et al, loc cit. The IC50 (concentration required to reduce proliferation to 50% of the untreated controls) for doxorubicin alone and with each compound were derived and used to calculate the potentiation index (PI): [formula]
(§2) The potentiation indices of a selection of compounds using a variety of cell lines and a variety of cytotoxics other than doxorubicin were measured following the protocol described above for doxorubicin, and the results are shown in Table D.

AR 1.0 cells [1] = test: Drug accumulation assay: daunorubicin accumulation in AR 1.0 cells; type: cell-based; conditions: Mus musculus, 100% = accumulation with verapamil 100 μM, 1 hr, 37° C.
Summary of the method: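 AR 1.0 is the MDR-resistant subline of EMT6 mouse mammary carcinoma, grown in RPMI 1640 with 10% foetal calf serum and 2 mM glutamine at 37 °C, 5% CO2. Cells were seeded 48 h before the daunorubicin accumulation assay.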

AR 1.0 cells [2] = test: Potentiation index with doxorubicin titration; type: cell-based, mouse; conditions: for Potentiation Index at RMA concentration 50 nM: Table C1, RMA 50 nM; for Potentiation Index at RMA concentration 20 nM: Table C1, RMA 20 nM; for Potentiation Index at RMA concentration 500 nM: Table C2, RMA 500 nM; for Potentiation Index at RMA concentration 300 nM: Table C2, RMA 300 nM
Summary of the method: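 MDR-resistant mouse EMT6 subline AR 1.0 grown four days with a doxorubicin titration (0.263 nM-17.24 μM) plus a fixed compound concentration; proliferation by sulphorhodamine B. Potentiation index derived from doxorubicin IC50 alone versus with compound.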

2780AD cells = test: Potentiation of toxicity of various cytotoxic agents, 2780AD cell line; type: cell-based; conditions: Taxol; for Potentiation Index at RMA concentration 10 nM: RMA 10 nM; for Potentiation Index at RMA concentration 30 nM: RMA 30 nM; for Potentiation Index at RMA concentration 50 nM: RMA 50 nM
Method: as §1, §2

AR 1.0 cells [3] = test: Potentiation of doxorubicin toxicity: proliferation assay (sulphorhodamine B); type: cell-based, mouse
Source text: (a) Selected compounds of formula (I) were examined for their ability to potentiate the toxicity of doxorubicin in AR 1.0 cells.

[4] = Mus musculus, 96 h, compound alone, four day proliferation, read-out: Compound Toxicity (IC50)
[5] = with fixed doxorubicin 0.34 μm, four days, 5760 min, read-out: Toxicity with Cytotoxic Agent (IC50)

SMILES	Potentiation Index at RMA concentration 30 nM (H69/LX4 cells; Taxol)	Potentiation Index at RMA concentration 50 nM (H69/LX4 cells; Taxol)	IC50 (AR 1.0 cells [1]) [nM]	Potentiation Index at RMA concentration 10 nM (AR 1.0 cells [2]; Table C1, RMA 10 nM)	Potentiation Index at RMA concentration 30 nM (AR 1.0 cells [2]; Table C1, RMA 30 nM)	Potentiation Index at RMA concentration 50 nM (AR 1.0 cells [2])	Potentiation Index at RMA concentration 100 nM (AR 1.0 cells [2]; Table C1, RMA 100 nM)	Potentiation Index at RMA concentration 10 nM (H69/LX4 cells; Taxol)	Potentiation Index at RMA concentration 500 nM (AR 1.0 cells [2])	IC50 (AR 1.0 cells [3]; [4]) [nM]	IC50 (AR 1.0 cells [3]; [5]) [nM]	further results
COc1ccc(CN2CCc3ccc(NC(=O)c4ccccc4NC(=O)c4cnc5ccccc5n4)cc3C2)cc1OC [compound 9614, Quinoxaline-2-carboxylic acid {2-[2-(3,4-dimethoxy-benzyl)-1,2,3,4-tetrahydro-isoquinolin-7-ylcarbamoyl]-phenyl}-amide]	1.1	11	278	2	9	32	52	–	–	–	–	–
COc1cc2c(cc1OC)CN(CCc1ccc(NC(=O)c3cc(N(C)C)ccc3NC(=O)c3cnc4ccccc4n3)cc1)CC2 [compound 9596, Quinoxaline-2-carboxylic acid (2-{4-[2-(6,7-dimethoxy-3,4-dihydro-1H-isoquinolin-2-yl)-ethyl]-phenylcarbamoyl}-4-dimethylamino-phenyl)-amide]	–	–	132	2.68	44	131	354	–	–	–	–	Potentiation Index at RMA concentration 10 nM (H69/LX4 cells; Vincristine): 1; Potentiation Index at RMA concentration 30 nM (H69/LX4 cells; Vincristine): 2; Potentiation Index at RMA concentration 50 nM (H69/LX4 cells; Vincristine): 158; Potentiation Index at RMA concentration 10 nM (2780AD cells): 3.5; Potentiation Index at RMA concentration 30 nM (2780AD cells): 160; Potentiation Index at RMA concentration 50 nM (2780AD cells): 743
COc1cc2c(cc1OC)CN(CCc1ccc(NC(=O)c3c(C)csc3NC(=O)c3cnc4ccccc4c3)cc1)CC2 [compound 9609, Quinoline-3-carboxylic acid (3-{4-[2-(6,7-dimethoxy-3,4-dihydro-1H-isoquinolin-2-yl)-ethyl]-phenylcarbamoyl}-4-methyl-thiophen-2-yl)-amide]	3	9	431	1.4	7.4	19	68	1	–	–	–	Potentiation Index at RMA concentration 20 nM (AR 1.0 cells [2]): 3.4
COc1ccc(CN(C)CCc2ccc(NC(=O)c3ccccc3NC(=O)c3cnc4ccccc4c3)cc2)cc1OC [compound 9613, Quinoline-3-carboxylic acid [2-(4-{2-[(3,4-dimethoxy-benzyl)-methyl-amino]-ethyl}-phenylcarbamoyl)-phenyl]-amide]	236	877	98	3	35	97	168	2.2	–	–	–	–
COc1cc2c(cc1OC)CN(CCc1ccc(NC(=O)c3sccc3NC(=O)c3cnc4ccccc4n3)cc1)CC2 [compound 9597, Quinoxaline-2-carboxylic acid (2-{4-[2-(6,7-dimethoxy-3,4-dihydro-1H-isoquinolin-2-yl)-ethyl]-phenylcarbamoyl}-thiophen-3-yl)-amide]	–	–	87	80	382	551	878	–	–	–	–	Potentiation Index at RMA concentration 10 nM (H69/LX4 cells; Vincristine): 1; Potentiation Index at RMA concentration 30 nM (H69/LX4 cells; Vincristine): 41; Potentiation Index at RMA concentration 50 nM (H69/LX4 cells; Vincristine): 44; Potentiation Index at RMA concentration 10 nM (2780AD cells): 110; Potentiation Index at RMA concentration 30 nM (2780AD cells): 1427; Potentiation Index at RMA concentration 50 nM (2780AD cells): 2070
COc1cc2c(cc1OC)CN(CCNC(=O)c1cc(Br)ccc1NC(=O)c1ccc(C(C)C)cc1)CC2 [compound 9394, 2-(4-Isopropyl-benzoylamino)-N-[2-(6,7-dimethoxy-3,4-dihydro-1H-isoquinolin-2-yl)-ethyl]-5-bromo-benzamide]	–	–	3400	–	–	–	–	–	12	10000	–	–
COc1cc2c(cc1OC)CN(CCc1ccc(NC(=O)c3c(C)csc3NC(=O)c3cnc4ccccc4n3)cc1)CC2 [compound 9608, Quinoxaline-2-carboxylic acid (3-{4-[2-(6,7-dimethoxy-3,4-dihydro-1H-isoquinolin-2-yl)-ethyl]-phenylcarbamoyl}-4-methyl-thiophen-2-yl)-amide]	17	130	224	6.7	60	118	178	1.6	–	–	–	Potentiation Index at RMA concentration 20 nM (AR 1.0 cells [2]): 31
COc1cc2c(cc1OC)CN(CCc1ccc(NC(=O)c3ccccc3NC(=O)c3ccccc3Cl)cc1)CC2 [compound 9494]	–	–	400	–	–	–	–	–	148	9000	50	Potentiation Index at RMA concentration 300 nM (AR 1.0 cells [2]): 38
COc1cc2c(cc1OC)CN(CCc1ccc(NC(=O)c3ccccc3NC(=O)c3cnc4ccccc4c3)cc1)CC2 [compound 9544, Quinoline-3-carboxylic acid (2-{4-[2-(6,7-dimethoxy-3,4-dihydro-1H-isoquinolin-2-yl)ethyl]-phenylcarbamoyl}-phenyl)-amide]	–	–	50	–	–	–	–	–	–	1900	7.7	Potentiation Index at RMA concentration 10 nM (AR 1.0 cells [2]; Table C2, RMA 10 nM): 15; Potentiation Index at RMA concentration 30 nM (AR 1.0 cells [2]; Table C2, RMA 30 nM): 67; Potentiation Index at RMA concentration 100 nM (AR 1.0 cells [2]; Table C2, RMA 100 nM): 120; Potentiation Index at RMA concentration 300 nM (AR 1.0 cells [2]): 150
COc1cc2c(cc1OC)CN(CCNC(=O)c1cc(Cl)ccc1NC(=O)c1ccc(C(C)C)cc1)CC2 [compound 9354, 2-(4-Isopropyl-benzoylamino)-N-[2-(6,7-dimethoxy-3,4-dihydro-1H-isoquinolin-2-yl)-ethyl]-5-chioro-benzamide]	–	–	600	–	–	–	–	–	20	8000	150	–
COc1ccc(CN(C)CCc2ccc(NC(=O)c3ccccc3NC(=O)c3cnc4ccccc4n3)cc2)cc1OC [compound 9612, Quinoxaline-2-carboxylic acid [2-(4-{2-[(3,4-dimethoxy-benzyl)-methyl-amino]-ethyl}-phenylcarbamoyl)-phenyl]-amide]	894	1329	87	11	95	149	171	51	–	–	–	–
COc1cc2c(cc1OC)CN(CCc1ccc(NC(=O)c3ccccc3NC(=O)c3cnccn3)cc1)CC2 [compound 9493, Pyrazine-2-carboxylic acid (2-{4-[2-(6,7-dimethoxy-3,4-dihydro-1H-isoquinolin-2-yl)-ethyl]-phenylcarbamoyl}-phenyl)-amide]	–	–	220	–	–	–	–	–	200	9000	50	Potentiation Index at RMA concentration 100 nM (AR 1.0 cells [2]; Table C2, RMA 100 nM): 7.6; Potentiation Index at RMA concentration 300 nM (AR 1.0 cells [2]): 85
COc1cc2c(cc1OC)CN(CCNC(=O)c1cccc(O)c1NC(=O)c1ccc(C(C)C)cc1)CC2 [compound 9424, 2-(4-Isopropyl-benzoylamino)-N-[2-(6,7-dimethoxy-3,4-dihydro-1H-isoquinolin-2-yl)-ethyl]-3-hydroxy-benzamide]	–	–	2500	–	–	–	–	–	37	39000	2600	–
